Values joined by “and” are separate entries in the source; they are usually repeats but may differ in a detail not shown here. Identical values can stand only once. Inconclusive results and toxic doses are left out.
Tested on: BDF1 mice, P388 leukemia ip, median survival T/C
Assay: NCI In Vivo Anticancer Drug Screen. Data for tumor model P388 Leukemia (intraperitoneal) in B6D2F1 (BDF1) mice
Conditions: endpoint: median survival time, higher = longer survival
Procedure, shortened: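 T/C = treated-group survival ÷ vehicle-control survival; tumour transplanted into mice before dosing.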

[1] = dose: 100.0 mg/kg/injection, schedule: Q04DX003 (sc), vehicle: steriod suspending solution
[2] = dose: 200.0 mg/kg/injection, schedule: Q04DX003 (sc), vehicle: steriod suspending solution
[3] = dose: 400.0 mg/kg/injection, schedule: Q04DX003 (sc), vehicle: steriod suspending solution
[4] = dose: 25.0 mg/kg/injection, schedule: Q01DX009 (ip), vehicle: saline with Tween-80
[5] = dose: 50.0 mg/kg/injection, schedule: Q01DX009 (ip), vehicle: saline with Tween-80
[6] = dose: 100.0 mg/kg/injection, schedule: Q01DX009 (ip), vehicle: saline with Tween-80
[7] = dose: 200.0 mg/kg/injection, schedule: Q01DX009 (ip), vehicle: saline with Tween-80
[8] = dose: 25.0 mg/kg/injection, schedule: Q01DX009 (ip), vehicle: water
[9] = dose: 50.0 mg/kg/injection, schedule: Q01DX009 (ip), vehicle: water
[10] = dose: 100.0 mg/kg/injection, schedule: Q01DX009 (ip), vehicle: water
[11] = dose: 200.0 mg/kg/injection, schedule: Q01DX009 (ip), vehicle: water
[12] = dose: 100.0 mg/kg/injection, schedule: Q04DX003 (ip), vehicle: saline with Tween-80
[13] = dose: 200.0 mg/kg/injection, schedule: Q04DX003 (ip), vehicle: saline with Tween-80
[14] = dose: 400.0 mg/kg/injection, schedule: Q04DX003 (ip), vehicle: saline with Tween-80
[15] = dose: 400.0 mg/kg/injection, schedule: Q01DX009 (ip), vehicle: saline with Tween-80
[16] = dose: 100.0 mg/kg/injection, schedule: Q01DX001 (ip), vehicle: saline with Tween-80
[17] = dose: 200.0 mg/kg/injection, schedule: Q01DX001 (ip), vehicle: saline with Tween-80

C[C@]12CCC(=O)C=C1CC[C@@H]1[C@@H]2[C@@H](O)C[C@@]2(C)[C@H]1CC[C@]2(O)C(=O)COC(=O)CCC(=O)O
T/C (dose: 50.0 mg/kg/injection, schedule: Q01DX009 (sc), vehicle: steriod suspending solution): 111 % of control | T/C (dose: 100.0 mg/kg/injection, schedule: Q01DX009 (sc), vehicle: steriod suspending solution): 111 % of control | T/C [1]: 100 % of control | T/C (dose: 200.0 mg/kg/injection, schedule: Q01DX009 (sc), vehicle: steriod suspending solution): 116 % of control | T/C [2]: 104 % of control | T/C (dose: 400.0 mg/kg/injection, schedule: Q01DX009 (sc), vehicle: steriod suspending solution): 111 % of control | T/C [3]: 100 % of control

COc1ccc(C(CC(=O)c2ccc3c(c2)OCO3)c2c(O)c3ccccc3oc2=O)cc1OC (configuration not stated)
T/C [4]: 89 % of control | T/C [5]: 91 % of control

CC(=O)[O][Pb]([O]C(C)=O)([c]1ccccc1)[c]1ccccc1
T/C (dose: 44.0 mg/kg/injection, schedule: Q01DX009 (ip), vehicle: saline with Tween-80): 177 % of control | T/C (dose: 66.0 mg/kg/injection, schedule: Q01DX009 (ip), vehicle: saline with Tween-80): 184 % of control | T/C [6]: 201 % of control | T/C (dose: 150.0 mg/kg/injection, schedule: Q01DX009 (ip), vehicle: saline with Tween-80): 93 % of control

CC(C#N)N(C)C (configuration not stated)
T/C (dose: 10.0 mg/kg/injection, schedule: Q01DX009 (ip), vehicle: saline): 110 % of control | T/C (dose: 10.0 mg/kg/injection, schedule: Q04DX003 (ip), vehicle: saline): 95 % of control | T/C (dose: 20.0 mg/kg/injection, schedule: Q04DX003 (ip), vehicle: saline): 91 % of control | T/C (dose: 40.0 mg/kg/injection, schedule: Q04DX003 (ip), vehicle: saline): 95 % of control

O=C(NC(=S)N1CC1)c1ccccc1
T/C [5]: 93 % of control | T/C [6]: 92 % of control | T/C [7]: 104 % of control

COc1cccc2c1CCC1C2CC=C2CC3(CCC21C)OCCO3 (configuration not stated)
T/C (dose: 50.0 mg/kg/injection, schedule: Q04DX003 (sc), vehicle: steriod suspending solution): 100 % of control | T/C [1]: 104 % of control | T/C [2]: 91 % of control | T/C [3]: 100 % of control

O=C(OC1C(OC(=O)C(Cl)Cl)C(OC(=O)C(Cl)Cl)C(OC(=O)C(Cl)Cl)C(OC(=O)C(Cl)Cl)C1OC(=O)C(Cl)Cl)C(Cl)Cl (configuration not stated)
T/C (dose: 37.5 mg/kg/injection, schedule: Q01DX001 (ip), vehicle: saline sonified): 95 % of control | T/C (dose: 75.0 mg/kg/injection, schedule: Q01DX001 (ip), vehicle: saline sonified): 100 % of control | T/C (dose: 150.0 mg/kg/injection, schedule: Q01DX001 (ip), vehicle: saline sonified): 86 % of control

O=C(O)c1cc([N+](=O)[O-])cc([N+](=O)[O-])c1 (tested in a mixture with another compound)
T/C (dose: 3.13 mg/kg/injection, schedule: Q04DX002 (ip), vehicle: saline with Tween-80): 100 % of control | T/C (dose: 6.25 mg/kg/injection, schedule: Q04DX002 (ip), vehicle: saline with Tween-80): 108 % of control | T/C (dose: 12.5 mg/kg/injection, schedule: Q04DX002 (ip), vehicle: saline with Tween-80): 104 % of control | T/C (dose: 25.0 mg/kg/injection, schedule: Q04DX002 (ip), vehicle: saline with Tween-80): 112 % of control

CN(C)NCCC#N
T/C (dose: 50.0 mg/kg/injection, schedule: Q01DX009 (ip), vehicle: saline): 100 % of control | T/C (dose: 66.0 mg/kg/injection, schedule: Q01DX009 (ip), vehicle: saline): 111 % of control | T/C (dose: 75.0 mg/kg/injection, schedule: Q01DX009 (ip), vehicle: saline): 117 % of control | T/C (dose: 100.0 mg/kg/injection, schedule: Q01DX009 (ip), vehicle: saline): 100 % of control and 111 % of control | T/C (dose: 150.0 mg/kg/injection, schedule: Q01DX009 (ip), vehicle: saline): 118 % of control | T/C (dose: 200.0 mg/kg/injection, schedule: Q01DX009 (ip), vehicle: saline): 86 % of control

O=C(O)CCC1(c2ccccc2)CCCC1
T/C [8]: 91 % of control | T/C [9]: 88 % of control | T/C [10]: 103 % of control | T/C [11]: 97 % of control | T/C (dose: 300.0 mg/kg/injection, schedule: Q01DX009 (ip), vehicle: water): 106 % of control

CC(C)(C)C1CCC(O)C(Cl)C1 (configuration not stated)
T/C (dose: 50.0 mg/kg/injection, schedule: Q04DX003 (ip), vehicle: Klucel (hydroxypropylcellulose) (HPC)): 95 % of control | T/C (dose: 100.0 mg/kg/injection, schedule: Q04DX003 (ip), vehicle: Klucel (hydroxypropylcellulose) (HPC)): 109 % of control | T/C (dose: 200.0 mg/kg/injection, schedule: Q04DX003 (ip), vehicle: Klucel (hydroxypropylcellulose) (HPC)): 109 % of control

N#CC(CC(=O)OCc1ccccc1)NC(=O)OCc1ccccc1 (configuration not stated)
T/C [12]: 95 % of control | T/C [13]: 90 % of control | T/C [14]: 100 % of control

Brc1ccc(-c2csc(Nc3nc(-c4ccc(Br)cc4)cs3)n2)cc1
T/C [12]: 90 % of control | T/C [13]: 90 % of control | T/C [14]: 95 % of control

CCOC(=O)CCC(NC(=O)c1ccc2c(c1)CCCN2C=O)C(=O)OCC (configuration not stated)
T/C (dose: 25.0 mg/kg/injection, schedule: Q01DX001 (ip), vehicle: saline sonified): 100 % of control | T/C (dose: 50.0 mg/kg/injection, schedule: Q01DX001 (ip), vehicle: saline sonified): 100 % of control | T/C (dose: 100.0 mg/kg/injection, schedule: Q01DX001 (ip), vehicle: saline sonified): 100 % of control

C=CCNC(=O)c1ccccc1OCC(=O)O
T/C (dose: 100.0 mg/kg/injection, schedule: Q01DX009 (ip), vehicle: gum acacia): 100 % of control | T/C (dose: 100.0 mg/kg/injection, schedule: Q04DX003 (ip), vehicle: gum acacia): 100 % of control | T/C (dose: 200.0 mg/kg/injection, schedule: Q01DX009 (ip), vehicle: gum acacia): 95 % of control | T/C (dose: 200.0 mg/kg/injection, schedule: Q04DX003 (ip), vehicle: gum acacia): 91 % of control | T/C (dose: 400.0 mg/kg/injection, schedule: Q01DX009 (ip), vehicle: gum acacia): 91 % of control | T/C (dose: 400.0 mg/kg/injection, schedule: Q04DX003 (ip), vehicle: gum acacia): 108 % of control

COC(=S)Nc1ccc2c(c1)nc(-c1ccccc1)c1cc(NC(=S)OC)ccc12
T/C (dose: 100.0 mg/kg/injection, schedule: Q04DX002 (ip), vehicle: saline with Tween-80): 101 % of control | T/C (dose: 200.0 mg/kg/injection, schedule: Q04DX002 (ip), vehicle: saline with Tween-80): 101 % of control | T/C (dose: 400.0 mg/kg/injection, schedule: Q04DX002 (ip), vehicle: saline with Tween-80): 90 % of control

O=c1c2ccccc2[nH]c2ccc(Cl)cc12
T/C [6]: 97 % of control | T/C [7]: 98 % of control | T/C [15]: 89 % of control

COc1ccc(C2(C#N)CCCC2)cc1
T/C [6]: 100 % of control | T/C [7]: 108 % of control | T/C [15]: 108 % of control

C#CCOCC(O)CO (configuration not stated)
T/C (dose: 6.25 mg/kg/injection, schedule: Q01DX009 (ip), vehicle: water): 88 % of control | T/C (dose: 12.5 mg/kg/injection, schedule: Q01DX009 (ip), vehicle: water): 106 % of control | T/C (dose: 12.5 mg/kg/injection, schedule: Q04DX003 (ip), vehicle: water): 93 % of control | T/C [8]: 117 % of control | T/C (dose: 25.0 mg/kg/injection, schedule: Q04DX003 (ip), vehicle: water): 111 % of control | T/C [9]: 117 % of control and 123 % of control | T/C (dose: 50.0 mg/kg/injection, schedule: Q04DX003 (ip), vehicle: water): 95 % of control | T/C [10]: 95 % of control and 122 % of control | T/C (dose: 100.0 mg/kg/injection, schedule: Q04DX003 (ip), vehicle: water): 98 % of control | T/C [11]: 110 % of control

Clc1ccc2c(c1)CN1Cc3cc(Cl)ccc3C2C1
T/C (dose: 50.0 mg/kg/injection, schedule: Q01DX001 (ip), vehicle: saline with Tween-80): 108 % of control | T/C [16]: 108 % of control | T/C [17]: 97 % of control

O=C1C(C2CCCCC2)CCCC1C1CCCCC1 (configuration not stated)
T/C [16]: 107 % of control | T/C [17]: 98 % of control

CCOc1ccc(-c2cc(C)n(C)[n+]2C)cc1
T/C (dose: 12.5 mg/kg/injection, schedule: Q01DX009 (ip), vehicle: saline with Tween-80): 100 % of control | T/C [4]: 98 % of control | T/C [5]: 92 % of control

From PubChem BioAssay AID328 (DTP/NCI, 2004)
